Data reported in patent US6979686B1, “Substituted pyrazoles as p38 kinase inhibitors” (Pharmacia Corporation, priority 2001, dated 2005).
Like-named read-outs stand apart in the source and are kept apart here. Each block holds one compound with its values, some of them ahead of it.

Key:
human p38 kinase alpha = biological target: T1, human p38 kinase alpha (Homo sapiens, UniProt Q16539); assay: p38 kinase in vitro assay, phosphorylation of biotinylated PHAS-I with 32P-ATP; assay type: biochemical; conditions: for P38 alpha kinase IC50, uM or % inhib @ conc. (uM): % inhib: @ 10.0 uM
T1 construct: GST (N, cleaved yes); made in house; host or cells: E. coli DH10B
T1 sequence (Q16539 whole entry): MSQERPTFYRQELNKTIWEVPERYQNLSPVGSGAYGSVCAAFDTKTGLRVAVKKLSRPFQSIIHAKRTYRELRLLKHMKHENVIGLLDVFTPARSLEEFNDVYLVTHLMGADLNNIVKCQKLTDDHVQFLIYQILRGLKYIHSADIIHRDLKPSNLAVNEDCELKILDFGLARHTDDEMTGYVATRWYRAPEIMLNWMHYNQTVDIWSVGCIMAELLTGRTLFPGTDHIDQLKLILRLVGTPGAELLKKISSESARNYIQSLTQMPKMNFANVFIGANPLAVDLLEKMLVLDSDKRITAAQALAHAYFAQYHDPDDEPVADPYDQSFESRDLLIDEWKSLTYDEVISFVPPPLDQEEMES

[1] = tested on: TNF-α, U937 human histiocytic lymphoma cell line; assay: LPS stimulation of TNF production by U937 cells; assay type: cell-based; conditions: for inhibition at 1 µM: U-937, @ 1.0 uM, read-out: U937 Cell % inhib @ conc.; for U937 Cell % inhib @ conc. (uM): @ 1.0 uM; for U937 Cell IC50, uM or % inhib @ conc. (uM): % inhib: @ 10.0 uM
In short: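 U937 cells differentiated 24 h with 20 ng/ml PMA, rested 24-48 h, used at 2 million cells/ml. Compounds in 0.1% DMSO final; LPS (E. coli, 100 ng/ml final) stimulation for 4 h at 37° C. Released TNF-α measured by ELISA; IC50 (μM).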

[2] = in vitro P38-alpha kinase inhibition, read-out: P38 alpha kinase IC50
[3] = Homo sapiens, U-937, TNF production, human U937 cells stimulated with LPS, read-out: U937 Cell IC50
[4] = in vitro P38-alpha kinase, read-out: P38 alpha kinase IC50
[5] = Homo sapiens, TNF production, LPS-stimulated U937 cells
[6] = TNF production in human U937 cells stimulated with LPS
[7] = Homo sapiens, TNF production, U937 cells stimulated with LPS
[8] = TNF production, U937 cells stimulated with LPS

- IC50 (human p38 kinase alpha; [2]): 3280 nM
- IC50 [1, 3]: > 1 µM
SMILES: O=C(NC(Cc1ccccc1)c1[nH]nc(-c2ccc(F)cc2)c1-c1ccncc1)c1cccc(Br)c1 (stereo not drawn) [Example B-0806]

- P38 alpha kinase IC50, uM or % inhib @ conc. (uM): % inhib (human p38 kinase alpha): 91.0% @
- IC50 ([1]; TNF production, U937 cells stimulated with LPS, read-out: U937 Cell IC50, uM or % inhib @ conc. (uM): IC50): > 10 µM
SMILES: Cc1c(-c2ccncc2)c(-c2ccc(F)cc2)nn1CC(=O)Nc1ccccc1OC(F)(F)F [Example B-2453]

- IC50 (human p38 kinase alpha; [4]): 770 nM
SMILES: COc1ccc(Br)cc1S(=O)(=O)N1CCC(c2[nH]nc(-c3ccc(F)cc3)c2-c2ccncc2)CC1 [Example B-1446]
- inhibition at 1 µM [1, 5]: 36%

- IC50 (human p38 kinase alpha; [4]): 1540 nM
SMILES: CN(C)c1cccc2c(S(=O)(=O)N3CCC(c4[nH]nc(-c5ccc(F)cc5)c4-c4ccncc4)CC3)cccc12 [Example B-1442]
- inhibition at 1 µM [1, 5]: 18%

- IC50 (human p38 kinase alpha; [2]): 3590 nM
SMILES: CC(NC(=O)NC(C)c1[nH]nc(-c2ccc(F)cc2)c1-c1ccncc1)c1ccccc1 (stereo not drawn) [Example B-0591]
- U937 Cell % inhib @ conc. (uM) [1, 6]: 29.0% @

- IC50 (human p38 kinase alpha; [4]): 850 nM
SMILES: O=S(=O)(c1ccc(Cl)cc1)N1CCC(c2[nH]nc(-c3ccc(F)cc3)c2-c2ccncc2)CC1 [Example B-1471]
- inhibition at 1 µM [1, 5]: 25%

- IC50 (human p38 kinase alpha; [4]): 3230 nM
SMILES: O=S(=O)(c1cccc(Cl)c1)N1CCC(c2[nH]nc(-c3ccc(F)cc3)c2-c2ccncc2)CC1 [Example B-1465]
- inhibition at 1 µM [1, 5]: 31%

- IC50 (human p38 kinase alpha; [4]): 240 nM
- IC50 [1, 3]: > 1 µM
SMILES: O=C(NCCCc1[nH]nc(-c2ccc(F)cc2)c1-c1ccncc1)NCCCN1CCCC1=O [Example B-1319]

- IC50 (human p38 kinase alpha; [2]): 500 nM
SMILES: O=C(NCCc1[nH]nc(-c2ccc(F)cc2)c1-c1ccncc1)c1cc(F)cc(F)c1 [Example B-1130]
- inhibition at 1 µM [1, 7]: 29%

- P38 alpha kinase % inhib @ conc. (uM) (human p38 kinase alpha; @ 1.0 uM): 69.0% @
SMILES: O=C(NCCc1[nH]nc(-c2ccc(F)cc2)c1-c1ccncc1)c1ccc(F)c(F)c1F [Example B-0997]
- U937 Cell % inhib @ conc. (uM) [1, 8]: 22.0% @

- P38 alpha kinase IC50, uM or % inhib @ conc. (uM): % inhib (human p38 kinase alpha): 39.0% @
- U937 Cell IC50, uM or % inhib @ conc. (uM): % inhib [1, 8]: 10.0% @
SMILES: COc1ccc2[nH]c3c(c2c1)CCN(C(=O)Cn1nc(-c2ccc(F)cc2)c(-c2ccncc2)c1C)C3 [Example B-2408]

- P38 alpha kinase IC50, uM or % inhib @ conc. (uM): % inhib (human p38 kinase alpha): 32.0% @
- U937 Cell IC50, uM or % inhib @ conc. (uM): % inhib [1, 8]: 28.0% @
SMILES: Cc1c(-c2ccncc2)c(-c2ccc(F)cc2)nn1CC(=O)N(C)CCN1CCOCC1 [Example B-2395]

- IC50 (human p38 kinase alpha; [2]): 2900 nM
SMILES: O=C(NC(Cc1ccccc1)c1[nH]nc(-c2ccc(F)cc2)c1-c1ccncc1)C1CCCN1 (stereo not drawn) [Example B-0794]
- U937 Cell % inhib @ conc. (uM) [1, 6]: 2.0% @

- inhibition at 1 µM (human p38 kinase alpha; @ 1.0 uM, read-out: P38 alpha kinase % inhib @ conc.): 94%
- IC50 [1, 3]: 3.98 µM
SMILES: O=C(NCc1[nH]nc(-c2ccc(F)cc2)c1-c1ccncc1)c1ccccc1C(F)(F)F [Example B-0016]

- IC50 (human p38 kinase alpha; [2]): 2220 nM
SMILES: COc1ccc(CC(=O)NC(C)c2[nH]nc(-c3ccc(F)cc3)c2-c2ccncc2)cc1 (stereo not drawn) [Example B-0549]
- inhibition at 1 µM ([1]; Homo sapiens, TNF production in human U937 cells stimulated with LPS): 22%

- IC50 (human p38 kinase alpha; [4]): 960 nM
SMILES: O=S(=O)(c1ccccc1C(F)(F)F)N1CCC(c2[nH]nc(-c3ccc(F)cc3)c2-c2ccncc2)CC1 [Example B-1460]
- inhibition at 1 µM [1, 5]: 29%

- IC50 (human p38 kinase alpha; [2]): 5420 nM
SMILES: CC(NC(=O)c1cc(Cl)cc(Cl)c1)c1[nH]nc(-c2ccc(F)cc2)c1-c1ccncc1 (stereo not drawn) [Example B-0675]
- U937 Cell % inhib @ conc. (uM) [1, 6]: 3.0% @

- P38 alpha kinase % inhib @ conc. (uM) (human p38 kinase alpha; @ 1.0 uM): 59.0% @
SMILES: COc1ccc(NC(=O)NCCc2[nH]nc(-c3ccc(F)cc3)c2-c2ccncc2)cc1 [Example B-0978]
- U937 Cell % inhib @ conc. (uM) [1, 8]: 36.0% @

- IC50 (human p38 kinase alpha; [2]): 1380 nM
SMILES: CNC(=O)CCC(NC(=O)C1CC1)c1[nH]nc(-c2ccc(F)cc2)c1-c1ccncc1 (stereo not drawn) [Example B-0866]
- inhibition at 1 µM [1, 7]: 28%

- P38 alpha kinase % inhib @ conc. (uM) (human p38 kinase alpha; @ 1.0 uM): 66.0% @
- IC50 ([1]; TNF production, human U937 cells stimulated with LPS, read-out: U937 Cell IC50): 0.99 µM
SMILES: O=C(NCCCc1[nH]nc(-c2ccc(F)cc2)c1-c1ccncc1)C1CCC1 [Example B-1165]

- IC50 (human p38 kinase alpha; [4]): 62 nM
SMILES: O=S(=O)(NCCCc1[nH]nc(-c2ccc(F)cc2)c1-c1ccncc1)c1cccc(C(F)(F)F)c1 [Example B-1276]
- inhibition at 1 µM [1, 5]: 11%

- IC50 (human p38 kinase alpha; [2]): 710 nM
SMILES: N#Cc1cccc(C(=O)NCCc2[nH]nc(-c3ccc(F)cc3)c2-c2ccncc2)c1 [Example B-1127]
- inhibition at 1 µM [1, 7]: 7%

- IC50 (human p38 kinase alpha; activated human p38 kinase alpha, PHAS-I substrate, 50 μM unlabeled ATP, read-out: p38 kinase IC50): 3200 nM
- IC50 ([1]; Table 5, LPS-stimulated U937 cells, TNF-α, read-out: U937 Cell Assay IC50): 2.36 µM
SMILES: CCOc1ccc(-c2n[nH]c(C)c2-c2ccncc2)cc1 [Example A-47]

- IC50 (human p38 kinase alpha; [2]): 620 nM
- IC50 [1, 3]: > 1 µM
SMILES: CNC(=O)CCC(NC(=O)c1cccc(Br)c1)c1[nH]nc(-c2ccc(F)cc2)c1-c1ccncc1 (stereo not drawn) [Example B-0867]
